Numbers after ± are expanded uncertainties.
Columns and labels:
[1] = for mass density: 101 kPa, Buoyancy - hydrostatic balance; for mass density / surface tension liquid-gas: Liquid; for surface tension liquid-gas: Maximal bubble pressure
[2] = refractive index (Na D-line) (dimensionless); settings: 101 kPa, Liquid, Standard Abbe refractometry

CCCCn1cc[n+](C)c1.NCC(=O)[O-] [1-butyl-3-methylimidazolium glycinate]
Settings	mass density, [1] [kg/m3]	refractive index, [2]	surface tension liquid-gas, [1] [mN/m]
283.15 K	1120.6 ± 0.5	–	44.3 ± 0.4
288.15 K	1117.4 ± 0.5	–	44 ± 0.4
293.15 K	1114.2 ± 0.5	1.5091 ± 0.0004	43.8 ± 0.4
298.15 K	1110.9 ± 0.5	1.5085 ± 0.0004	43.5 ± 0.4
303.15 K	1107.8 ± 0.5	1.5068 ± 0.0004	43.2 ± 0.4
308.15 K	1104.7 ± 0.5	1.5049 ± 0.0004	42.9 ± 0.4
313.15 K	1101.6 ± 0.5	1.5038 ± 0.0004	42.6 ± 0.4
318.15 K	1098.6 ± 0.5	1.5029 ± 0.0004	42.2 ± 0.4
323.15 K	1095.5 ± 0.5	1.5019 ± 0.0004	41.8 ± 0.4
328.15 K	1092.3 ± 0.5	–	41.5 ± 0.4

Settings	Glass transition temperature [°C]
[1], Glass, DTA	-81.80 ± 4
